Results reported in ChEMBL document CHEMBL3044631, “Synthesis of 2-[4,5-dimethyl-1-(phenylamino)-1H-imidazol-2-ylthio]-N-(thiazole-2-yl)acetamide derivatives and their anticancer activities” (2013).

What was measured:
Assay type in all cases: functional
HCT-116 = experiment: Anticancer activity against Homo sapiens (human) HCT116 cells assessed as cell growth promotion at 10 uM after 48 hr by SRB assay
NCI/ADR-RES = experiment: Anticancer activity against Homo sapiens (human) NCI/ADR-RES cells assessed as cell growth promotion at 10 uM after 48 hr by SRB assay
Hs-578T = experiment: Anticancer activity against Homo sapiens (human) Hs 578T cells assessed as cell growth promotion at 10 uM after 48 hr by SRB assay
NCI-H23 = experiment: Anticancer activity against Homo sapiens (human) NCI-H23 cells assessed as cell growth promotion at 10 uM after 48 hr by SRB assay
HCC 2998 = experiment: Anticancer activity against Homo sapiens (human) HCC2998 cells assessed as cell growth promotion at 10 uM after 48 hr by SRB assay
Malme-3M = experiment: Anticancer activity against Homo sapiens (human) MALME-3M cells assessed as cell growth promotion at 10 uM after 48 hr by SRB assay
K562 = experiment: Anticancer activity against Homo sapiens (human) K562 cells assessed as cell growth promotion at 10 uM after 48 hr by SRB assay
SR = experiment: Anticancer activity against Homo sapiens (human) SR cells assessed as cell growth promotion at 10 uM after 48 hr by SRB assay
OVCAR-8 = experiment: Anticancer activity against Homo sapiens (human) OVCAR8 cells assessed as cell growth promotion at 10 uM after 48 hr by SRB assay
A549 = experiment: Anticancer activity against Homo sapiens (human) A549/ATCC cells assessed as cell growth promotion at 10 uM after 48 hr by SRB assay
M14 = experiment: Anticancer activity against Homo sapiens (human) M14 cells assessed as cell growth promotion at 10 uM after 48 hr by SRB assay
T47D = experiment: Anticancer activity against Homo sapiens (human) T47D cells assessed as cell growth promotion at 10 uM after 48 hr by SRB assay
SN12C = experiment: Anticancer activity against Homo sapiens (human) SN12C cells assessed as cell growth promotion at 10 uM after 48 hr by SRB assay
SF-539 = experiment: Anticancer activity against Homo sapiens (human) SF539 cells assessed as cell growth promotion at 10 uM after 48 hr by SRB assay
786-0 = experiment: Anticancer activity against Homo sapiens (human) 786-0 cells assessed as cell growth promotion at 10 uM after 48 hr by SRB assay
KM12 = experiment: Anticancer activity against Homo sapiens (human) KM12 cells assessed as cell growth promotion at 10 uM after 48 hr by SRB assay
HOP-62 = experiment: Anticancer activity against Homo sapiens (human) HOP62 cells assessed as cell growth promotion at 10 uM after 48 hr by SRB assay
SNB-75 = experiment: Anticancer activity against Homo sapiens (human) SNB75 cells assessed as cell growth promotion at 10 uM after 48 hr by SRB assay
HT-29 = experiment: Anticancer activity against Homo sapiens (human) HT-29 cells assessed as cell growth promotion at 10 uM after 48 hr by SRB assay

Row | SMILES | Activity (HCT-116) | Activity (NCI/ADR-RES) | Activity (Hs-578T) | Activity (NCI-H23) | Activity (HCC 2998) | Activity (Malme-3M) | Activity (K562) | Activity (SR) | Activity (OVCAR-8) | Activity (A549) | Activity (M14) | Activity (T47D) | Activity (SN12C) | Activity (SF-539) | Activity (786-0) | Activity (KM12) | Activity (HOP-62) | Activity (SNB-75) | Activity (HT-29)
1 | CCOC(=O)c1csc(NC(=O)CSc2nc(C)c(C)n2Nc2ccc(C)cc2)n1 | 68.84% | 70.04% | 139.32% | 74.71% | 96.72% | 110.81% | 78.51% | 87.01% | 82.64% | 82.13% | 70.97% | 57.89% | 62.75% | 73.62% | 83.82% | 108.43% | 63.23% | 83.76% | 52.44%
2 | COc1ccc(Nn2c(SCC(=O)Nc3nccs3)nc(C)c2C)cc1 | 106.93% | 92.35% | 109.7% | 106.56% | 110.49% | 119.7% | 99.68% | 104% | 103.25% | 104.98% | 107.71% | 94.87% | 98.23% | 101.05% | 100.29% | 96.74% | 106.4% | 100.22% | 102.36%
3 | Cc1nc(SCC(=O)Nc2nccs2)n(Nc2ccc(Cl)cc2)c1C | 94.47% | 100.18% | 121.05% | 109.41% | 115.62% | 140.83% | 112.86% | 120.95% | 104.9% | 101.96% | 97.83% | 91.74% | 96.39% | 90.1% | 111.66% | 113.75% | 88.3% | 92.05% | 108.32%
